Source: patent publication US20040127439A1, “Introduction of the wld gene for prevention of axonal degeneration in neurological diseases” (priority 2004, published 2004)

Legend:
Type in all cases: cell-based
[1] = test system: C57BL/6 cultured neurites; assay: Vincristine neuropathy in C57BL/6 mouse DRG cultures
Description: (§1) DRGs were allowed to mature for 5 days to create a lush halo of neurites. […] This date was defined as treatment day 0. […] Cultures were monitored and imaged on day 0, day 4, day 8 and day 10 of treatment using video microscopy.
(§2) Measures of axonal survival were the length of longest remaining axon, and the area of remaining DRG halo, as determined by serial phase-contrast video microscopy (FIG. 6). The axonal length was measured from the center of the DRG to the visible distal end of the axon. […] Data were thus analyzed as percent of day 0.

Wld^S cultured neurites = assay: Vincristine neuropathy in Wld^S mouse DRG cultures; conditions: for halo area at day 10 compared to day 0 / length of longest axons at day 10 compared to day 0: Wld^S
Description: as §1, §2

C57BL/6 DRG axons = assay: Vincristine withdrawal in C57BL/6 mouse DRG cultures; conditions: 0.05 μM vincristine for 24 hours, 4 days after exposure
Description: (§3) The methods for DRG culture have been previously described.
(§4) Cultures were measured for length of longest axon and area of the DRG halo at days 4, 8, 12, 16 and 20. Lengths were measured from the center of the DRG to the visible distal end of the axon, and areas were calculated by tracing the circumference crested by connecting the tips of the remaining axons. […] Comparisons were made between quantitative data for C57BL/6 and Wld^S axons. For assessment of growth, day 4 observations in Wld^S were compared to all succeeding days using ANOVA for repeated measures.

Wld^S DRG axons = assay: Vincristine withdrawal in Wld^S mouse DRG cultures; conditions: 0.05 μM vincristine for 24 hours
Description: as §3, §4

rat DRG cultures = assay: Resistance to vincristine-induced axonal degeneration in adenovirus-infected rat DRG cultures
Description: Adenovirus was generated as previously described. Briefly, the modified transfer vector was linearized with NheI for preparation of the recombinant adenovirus. […] The transfected 293A cells were trypsinized and diluted with 293A cells, seeded into the 96-well tissue culture plates, and kept at 37 C, 5% CO2 for several days. […] Recombinant adenoviruses were purified from wild type viruses by the limiting dilution method. Adenovirus titers were determined by TCID-50 (Tissue Culture Infectious Dose).
Cultures had extended neurites for 6 days before introduction of the transgene. Transgene expression, indicated by GFP fluorescence, was monitored by fluorescence microscopy.
The methods for DRG culture have been previously described. […] Suppression of Schwann cell growth was accomplished by addition of fluorodeoxyuridine and uridine (both at a dose of 10^−6M, Sigma) on days 2-5.
E15 DRG were grown in culture for 6 days and then exposed to adenovirus (with or without the Wld^Stransgene) as described above. […] Length and area measurements were performed and analyzed as described above for mouse cultures.

[2] = vincristine 0.01 μM, Day 4, C57BL/6
[3] = vincristine 0.01 μM, Day 10, C57BL/6
[4] = vincristine 0.02 μM, Day 4, C57BL/6
[5] = vincristine 0.02 μM, Day 8, C57BL/6
[6] = vincristine 0.02 μM, Day 10, C57BL/6
[7] = vincristine 0.05 μM, Day 4, C57BL/6
[8] = vincristine 0.05 μM, Day 8, C57BL/6
[9] = vincristine 0.05 μM, Day 10, C57BL/6
[10] = vincristine 0.1 μM, Day 4, C57BL/6
[11] = vincristine 0.1 μM, Day 8, C57BL/6
[12] = vincristine 0.1 μM, Day 10, C57BL/6
[13] = Day 4, continuous 0.01 μM vincristine
[14] = Day 8, continuous 0.01 μM vincristine
[15] = Day 10, continuous 0.01 μM vincristine

Vincristine sulfate salt
halo area at day 10 compared to day 0 ([1]; C57BL/6, vincristine 0.01 μM): 42.86±7.30%
length of longest axons at day 10 compared to day 0 ([1]; C57BL/6, vincristine 0.01 μM): 50.99±5.97%
halo area at day 10 compared to day 0 ([1]; C57BL/6, vincristine 0.1 μM): 0.45±0.09%
length of longest axons at day 10 compared to day 0 ([1]; C57BL/6, vincristine 0.1 μM): 3.56±0.62%
Area of DRG Halo [1, 2]: 7.34 ± 0.78 mm^2
Length of Longest Neurite [1, 2]: 1.77 ± 0.12 mm
Area of DRG Halo ([1]; vincristine 0.01 μM, Day 8, C57BL/6): 5.79 ± 0.86 mm^2
Area of DRG Halo [1, 3]: 4.42 ± 0.85 mm^2
Length of Longest Neurite [1, 3]: 1.22 ± 0.17 mm
Area of DRG Halo [1, 4]: 4.56 ± 1.10 mm^2
Length of Longest Neurite [1, 4]: 1.28 ± 0.22 mm
Area of DRG Halo [1, 5]: 1.14 ± 0.49 mm^2
Length of Longest Neurite [1, 5]: 0.53 ± 0.16 mm
Area of DRG Halo [1, 6]: 0.56 ± 0.27 mm^2
Length of Longest Neurite [1, 6]: 0.41 ± 0.13 mm
Area of DRG Halo [1, 7]: 1.20 ± 0.47 mm^2
Length of Longest Neurite [1, 7]: 0.32 ± 0.08 mm
Area of DRG Halo [1, 8]: 0.05 ± 0.01 mm^2
Length of Longest Neurite [1, 8]: 0.09 ± 0.01 mm
Area of DRG Halo [1, 9]: 0.04 ± 0.01 mm^2
Length of Longest Neurite [1, 9]: 0.07 ± 0.01 mm
Area of DRG Halo [1, 10]: 0.46 ± 0.19 mm^2
Length of Longest Neurite [1, 10]: 0.30 ± 0.09 mm
Area of DRG Halo [1, 11]: 0.04 ± 0.01 mm^2
Length of Longest Neurite [1, 11]: 0.08 ± 0.01 mm
Area of DRG Halo [1, 12]: 0.04 ± 0.01 mm^2
Length of Longest Neurite [1, 12]: 0.08 ± 0.01 mm
halo area at day 10 compared to day 0 (Wld^S cultured neurites; vincristine 0.01 μM): 64.75±2.62%
length of longest axons at day 10 compared to day 0 (Wld^S cultured neurites; vincristine 0.01 μM): 84.33±2.54%
halo area at day 10 compared to day 0 (Wld^S cultured neurites; vincristine 0.1 μM): 7.92±3.83%
length of longest axons at day 10 compared to day 0 (Wld^S cultured neurites; vincristine 0.1 μM): 10.17±3.22%
Area of DRG Halo (Wld^S cultured neurites; vincristine 0.01 μM, Day 4, Wld^S): 7.27 ± 0.51 mm^2
Area of DRG Halo (Wld^S cultured neurites; vincristine 0.01 μM, Day 8, Wld^S): 6.50 ± 0.56 mm^2
Area of DRG Halo (Wld^S cultured neurites; vincristine 0.01 μM, Day 10, Wld^S): 5.60 ± 0.51 mm^2
Area of DRG Halo (Wld^S cultured neurites; vincristine 0.02 μM, Day 4, Wld^S): 5.95 ± 0.72 mm^2
Area of DRG Halo (Wld^S cultured neurites; vincristine 0.02 μM, Day 8, Wld^S): 3.39 ± 0.64 mm^2
Area of DRG Halo (Wld^S cultured neurites; vincristine 0.02 μM, Day 10, Wld^S): 2.53 ± 0.59 mm^2
Area of DRG Halo (Wld^S cultured neurites; vincristine 0.05 μM, Day 4, Wld^S): 4.17 ± 0.45 mm^2
Area of DRG Halo (Wld^S cultured neurites; vincristine 0.05 μM, Day 8, Wld^S): 1.63 ± 0.48 mm^2
Area of DRG Halo (Wld^S cultured neurites; vincristine 0.05 μM, Day 10, Wld^S): 0.80 ± 0.36 mm^2
Area of DRG Halo (Wld^S cultured neurites; vincristine 0.1 μM, Day 4, Wld^S): 5.30 ± 0.86 mm^2
Area of DRG Halo (Wld^S cultured neurites; vincristine 0.1 μM, Day 8, Wld^S): 2.00 ± 0.66 mm^2
Area of DRG Halo (Wld^S cultured neurites; vincristine 0.1 μM, Day 10, Wld^S): 0.59 ± 0.28 mm^2
DRG area, % of control values (C57BL/6 DRG axons): 32%
axon length, % of control values (C57BL/6 DRG axons): 35%
duration of growth arrest (Wld^S DRG axons): 10 days
area after resumed growth, % of control values (Wld^S DRG axons; 20-day observation period): 150%
length after resumed growth, % of control values (Wld^S DRG axons; 20-day observation period): 125%
Area of DRG halo (% of Day 0) (rat DRG cultures; [13]): 30.43 ± 5.05 % of Day 0
Length of axons (% of Day 0) (rat DRG cultures; [13]): 48.79 ± 4.72 % of Day 0
Area of DRG halo (% of Day 0) (rat DRG cultures; [14]): 13.23 ± 1.52 % of Day 0
Length of axons (% of Day 0) (rat DRG cultures; [14]): 35.86 ± 3.76 % of Day 0
Area of DRG halo (% of Day 0) (rat DRG cultures; [15]): 9.78 ± 2.22 % of Day 0
Length of axons (% of Day 0) (rat DRG cultures; [15]): 26.28 ± 4.08 % of Day 0
